{"source": "patent US8926994B2", "about": "“Mesoporous silicon particles for the presentation of tumor antigens and adjuvant for anti-cancer immunity” (The Methodist Hospital Research Institute, priority 2011, dated 2015)", "origin": "cited, not measured here", "system": "endothelial cells", "data": [{"smiles": "N.N.[Cl][Pt][Cl]", "note": "[cis-platin]", "values": [{"measurement": "relative cell cycle composition / mitosis (propidium iodide DNA content)", "setting": "12 and 24 hr, 10:1 microparticles:cell", "value": "inhibited cellular mitosis"}, {"measurement": "apoptotic volume (cell death)", "setting": "flow cytometry", "value": "major accumulation of cell fragments"}]}]}
